Like-named read-outs stand apart in the source and are kept apart here. Square brackets hold non-standard residues; d marks the D form. Peptide text beside a SMILES is read from it. Phg = N[C@H](C(=O)O)c1ccccc1
Legend:
[1] = Sweetness intensity relative to sucrose, taste panel comparison with five sucrose standard samples; format: in vivo, Male subjects; conditions: relative to sucrose (w/v); test sample about 22°C, prepared at a concentration equal to about 8-10% sucrose
Description: The subjects were asked to taste and expectorate about 10 ml of a test sample (temperature of about 22°C) having dissolved therein the ester or amide. The subjects were then asked to compare the sweetness of the test sample with five standard samples which contained increasing amounts of sucrose. The standard samples were letter coded A, B, C, D and E and were designated on a ballot by a closed linear scale. Sweetness intensity of the test sample was recorded by the subject making a mark on the linear scale at a point they considered equal in sweetness among the standard samples; interpolation between standards was encouraged. After completion of the panel, a five point numeric scale was superimposed on the linear scales to obtain numerical data; data were averaged and recorded to the nearest 0.25 unit. Equivalent sucrose sweetness was determined by referring to graphs of (wlv) sucrose concentration in the standard samples versus a linear numeric scale.
Sweetness intensity was calculated by dividing the concentration (w/v) of perceived sweeteness by the concentration (wlv) of the ester or amide required to produce that sweetness. […] The test sample was prepared at a concentration which would be equal to about 8-10% sucrose.

[2] = in most carbonated beverages; background statement; cited from earlier work
[3] = cited from earlier work; for sweetness intensity: prior art value; for taste: taste description from prior art
[4] = Sweetness intensity based on informal panel testing; format: in vivo
[5] = Solubility for the sweetness intensity measurement; format: physicochemical; conditions: sweetness intensity test sample

Compound | sweetness intensity [1] [X] | sweetness intensity [3] | also measured
alpha-L-Aspartyl-D-phenylglycine-(-)-beta-fenchyl ester [Example 8a] | 600 | – | –
COC(=O)[C@H](Cc1ccccc1)NC(=O)[C@@H](N)CC(=O)O [aspartame, alpha-L-aspartyl-L-phenylalanine methyl ester] (H-Asp-Phe-OMe) | – | 150-200 times that of sucrose | hydrolytic stability [2]: hydrolytically unstable
CC1(C)SC(C)(C)C1NC(=O)[C@H](NC(=O)[C@@H](N)CC(=O)O)c1ccccc1 [Example 11, alpha-L-Aspartyl-D-phenylglycine-2,2,4,4-tetramethylthietan-3-yl amide] | – | – | sweetness intensity [4]: 100 X
C[C@@H](NC(=O)[C@@H](N)CC(=O)O)C(=O)NC(C1CC1)C1CC1 [dicyclopropylcarbinyl] | – | 1200 times that of sucrose | –
CC1CCC(C)C1NC(=O)[C@@H](C)NC(=O)[C@@H](N)CC(=O)O (stereo partly drawn) [2,5 dimethylcyclopentyl] | – | 520 times that of sucrose | –
COC(=O)[C@@H](Cc1ccccc1)NC(=O)[C@@H](N)CC(=O)O [methyl ester of L-aspartyl-D-phenylalanine] (H-Asp-[dF]-OMe) | – | – | taste [3]: bitter
(±) exo-Norbornyl ester [Example 6] | 150 | – | –
alpha-L-Aspartyl-D-phenylglycine-alpha-7-oxa-fenchyl ester [Example 14] | – | – | sweetness intensity [4]: approximately 1000 X
(±) endo-Norbornyl ester [Example 5] | 20 | – | –
COC(=O)[C@@H](NC(=O)[C@@H](N)CC(=O)O)c1ccccc1 [methyl ester of L-aspartyl-L-phenylglycine] (H-Asp-[Phg]-OMe) | – | 100-1000 times that of sucrose | taste [3]: quite sweet
N[C@@H](CC(=O)O)C(=O)N[C@@H](C(=O)NC(C1CC1)C1CC1)c1ccccc1 [Example 12, alpha-L-Aspartyl-D-phenylglycinedicyclopropylcarbinyl amide] | 80 | – | –
CC1CCC(C)C1OC(=O)[C@H](NC(=O)[C@@H](N)CC(=O)O)c1ccccc1 (stereo partly drawn) [Example 4, 2,5-Dimethylcyclopentyl ester] | 370 | – | –
CC1(C)[C@@H]2CC[C@@](C)(C2)[C@@H]1OC(=O)[C@H](NC(=O)[C@@H](N)CC(=O)O)c1ccccc1 [Example 1, alpha-L-Aspartyl-D-phenylglycine-(-)-alpha-fenchyl ester] | 1750 | – | –
CCOC(=O)C(NC(=O)[C@@H](N)CC(=O)O)C(=O)OC1C2(C)CCC(C2)C1(C)C (stereo partly drawn) [R' is fenchyl and R is ethyl] | – | 4200-5400 times that of sucrose | –
CC1CCCC(C)C1NC(=O)[C@@H](C)NC(=O)[C@@H](N)CC(=O)O (stereo partly drawn) [2,6-dimethylcyclohexyl] | – | 600 times that of sucrose | –
C[C@@H](NC(=O)[C@@H](N)CC(=O)O)C(=O)NC1C(C)(C)SC1(C)C [2,2,4,4-tetramethylthietan-3-yl] | – | 2000 times that of sucrose | –
alpha-L-Aspartyl-D-phenylglycine-(+)-beta-fenchyl ester [Example 8b] | 5000 | – | –
CC1CCCC(C)C1NC(=O)[C@H](NC(=O)[C@@H](N)CC(=O)O)c1ccccc1 (stereo partly drawn) [Example 10, 2,6-Dimethylcyclohexyl amide] | – | – | solubility [5]: too Insoluble for an accurate sweetness intensity measurement
COC(=O)C(NC(=O)[C@@H](N)CC(=O)O)C(=O)OC1C2(C)CCC(C2)C1(C)C (stereo partly drawn) [R' is fenchyl and R is methyl] | – | 22,200-33,200 times that of sucrose | –
CC(OC(=O)[C@H](NC(=O)[C@@H](N)CC(=O)O)c1ccccc1)C(C)(C)C (stereo partly drawn) [Example 2, 3,3-Dimethyl-2-butyl ester] | 30 | – | –
O=C1NS(=O)(=O)c2ccccc21 [Saccharin, saccharin] | – | about 300 times that of sucrose | –
C[C@@H](NC(=O)[C@@H](N)CC(=O)O)C(=O)NC1C(C)(C)S(=O)(=O)C1(C)C | – | 1000 times that of sucrose | –
